Laboratory results taken from patent publication US10758545B2, “Methods to treat neurological diseases” (UNIVERSITY OF SOUTHERN CALIFORNIA, priority 2015, dated 2020).

Test system: C9ORF72 patient iMNs
Test: induced motor neuron (iMN) survival assay, glutamate treatment
Format: cell-based, human
Settings: excess glutamate (10 μM, 12 hrs); longitudinal tracking, log-rank
Procedure: For the glutamate treatment conditions, 10 μM glutamate was added to the culture medium on day 17 and removed after 12 hrs. Cells were then maintained in N3 medium with neurotrophic factors without RepSox. For the glutamate treatment conditions with glutamate receptor antagonists, cultures were co-treated with 10 μM MK801 and CNQX, and 2 μM Nimodipine during the 12 hr glutamate treatment. The antagonists were maintained for the remainder of the experiment. For the neurotrophic factor withdrawal condition, BDNF, GDNF, and CNTF were removed from the culture medium starting at day 17. Longitudinal tracking was performed by imaging neuronal cultures in a Nikon Biostation CT or Molecular Devices ImageExpress once every 24 hrs starting at day 17. Tracking of neuronal survival was performed using SVcell 2.0 (DRVision Technologies).

Cc1cccc(/C=N/Nc2cc(N3CCOCC3)nc(OCCc3ccccn3)n2)c1 [apilimod]
survival of C9ORF72 patient iMNs: increased the survival
